# Patent US20230085307A1, “PYRIDAZINONE COMPOUND AND HERBICIDE” (NISSAN CHEMICAL CORPORATION, priority 2019, published 2023)
# Experiments:
# redroot pigweed [1] = experiment: Test Example 4: herbicidal effect by soil treatment (Table 19, symbol N); type: in vivo, redroot pigweed (Amaranthus retroflexus)
# Method in brief: (§1)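 Seeds were sown in sterilized diluvial soil and covered with about 1.5 cm of soil. An emulsion formulation diluted with water to a predetermined herbicide amount was sprayed evenly onto the soil surface. Plants grew in a greenhouse at 25° C. to 30° C., and the effect was scored three weeks after application using criteria from an earlier test.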
# Italian ryegrass [2] = experiment: Test Example 5: herbicidal effect by foliage application, plastic box (Table 20, symbol K); type: in vivo, Italian ryegrass (Lolium multiflorum)
# Method in brief: (§2)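 Plants sown in sterilized diluvial soil and grown 14 days in a greenhouse at 25° C to 30° C, then sprayed on the foliage with the compound's emulsion diluted in water to a predetermined herbicide amount. Injury to weeds and crops scored three weeks after application on a visual rating scale.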
# redroot pigweed [3] = experiment: Test Example 5: herbicidal effect by foliage application, plastic box (Table 20, symbol N); type: in vivo, redroot pigweed (Amaranthus retroflexus)
# Method in brief: as §2
# wild oat [4] = experiment: Test Example 4: herbicidal effect by soil treatment (Table 19, symbol I); type: in vivo, wild oat (Avena fatua)
# Method in brief: as §1
# velvetleaf [5] = experiment: Test Example 4: herbicidal effect by soil treatment (Table 19, symbol M); type: in vivo, velvetleaf (Abutilon theophrasti)
# Method in brief: as §1
# blackgrass [6] = experiment: Test Example 5: herbicidal effect by foliage application, plastic box (Table 20, symbol J); type: in vivo, blackgrass (Alopecurus myosuroides)
# Method in brief: as §2
# blackgrass [7] = experiment: Test Example 4: herbicidal effect by soil treatment (Table 19, symbol J); type: in vivo, blackgrass (Alopecurus myosuroides)
# Method in brief: as §1
# wild oat [8] = experiment: Test Example 5: herbicidal effect by foliage application, plastic box (Table 20, symbol I); type: in vivo, wild oat (Avena fatua)
# Method in brief: as §2
# velvetleaf [9] = experiment: Test Example 5: herbicidal effect by foliage application, plastic box (Table 20, symbol M); type: in vivo, velvetleaf (Abutilon theophrasti)
# Method in brief: as §2
# lambsquarters [10] = experiment: Test Example 4: herbicidal effect by soil treatment (Table 19, symbol O); type: in vivo, lambsquarters (Chenopodium album)
# Method in brief: as §1
# Italian ryegrass [11] = experiment: Test Example 4: herbicidal effect by soil treatment (Table 19, symbol K); type: in vivo, Italian ryegrass (Lolium multiflorum)
# Method in brief: as §1
# barnyard grass [12] = experiment: Test Example 4: herbicidal effect by soil treatment (Table 19, symbol H); type: in vivo, barnyard grass (Echinochloa crus-galli)
# Method in brief: as §1
# lambsquarters [13] = experiment: Test Example 5: herbicidal effect by foliage application, plastic box (Table 20, symbol O); type: in vivo, lambsquarters (Chenopodium album)
# Method in brief: as §2
# windgrass [14] = experiment: Test Example 4: herbicidal effect by soil treatment (Table 19, symbol L); type: in vivo, windgrass (Apera spica-venti)
# Method in brief: as §1
# rice flat sedge = experiment: Test Example 3: herbicidal effect by foliage application, Wagner pot (Table 18, symbol E); type: in vivo, rice flat sedge (Cyperus iria)
# Method in brief: (§3)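 Plants were sown in alluvial soil held under 0.1–0.5 cm standing water and grown 14 days in a greenhouse at 25–30 °C. An emulsifiable formulation, water-diluted to the set dose, was then sprayed onto the foliage, and effects were scored three weeks later using previously defined criteria.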
# southern crabgrass [15] = experiment: Test Example 5: herbicidal effect by foliage application, plastic box (Table 20, symbol F); type: in vivo, southern crabgrass (Digitaria ciliaris)
# Method in brief: as §2
# southern crabgrass [16] = experiment: Test Example 4: herbicidal effect by soil treatment (Table 19, symbol F); type: in vivo, southern crabgrass (Digitaria ciliaris)
# Method in brief: as §1
# chickweed [17] = experiment: Test Example 4: herbicidal effect by soil treatment (Table 19, symbol P); type: in vivo, common chickweed (Stellaria media)
# Method in brief: as §1
# green foxtail [18] = experiment: Test Example 4: herbicidal effect by soil treatment (Table 19, symbol G); type: in vivo, green foxtail (Setaria viridis)
# Method in brief: as §1
# Chinese sprangletop = experiment: Test Example 3: herbicidal effect by foliage application, Wagner pot (Table 18, symbol D); type: in vivo, chinese sprangletop (Leptochloa chinensis)
# Method in brief: as §3
# green foxtail [19] = experiment: Test Example 5: herbicidal effect by foliage application, plastic box (Table 20, symbol G); type: in vivo, green foxtail (Setaria viridis)
# Method in brief: as §2
# persian speedwell [20] = experiment: Test Example 5: herbicidal effect by foliage application, plastic box (Table 20, symbol R); type: in vivo, Persian speedwell (Veronica persica)
# Method in brief: as §2
# barnyard grass [21] = experiment: Test Example 3: herbicidal effect by foliage application, Wagner pot (Table 18, symbol H); type: in vivo, barnyard grass (Echinochloa crus-galli)
# Method in brief: as §3
# persian speedwell [22] = experiment: Test Example 4: herbicidal effect by soil treatment (Table 19, symbol R); type: in vivo, Persian speedwell (Veronica persica)
# Method in brief: as §1
# barnyard grass [23] = experiment: Test Example 5: herbicidal effect by foliage application, plastic box (Table 20, symbol H); type: in vivo, barnyard grass (Echinochloa crus-galli)
# Method in brief: as §2
# chickweed [24] = experiment: Test Example 5: herbicidal effect by foliage application, plastic box (Table 20, symbol P); type: in vivo, common chickweed (Stellaria media)
# Method in brief: as §2
# windgrass [25] = experiment: Test Example 5: herbicidal effect by foliage application, plastic box (Table 20, symbol L); type: in vivo, windgrass (Apera spica-venti)
# Method in brief: as §2
# [26] = amount of applied herbicide 320 g/ha
# [27] = amount of applied herbicide 320 g/ha, foliage application after 14-day growth, evaluated three weeks after application
# [28] = foliage application, AAH 296 g/ha, three weeks after application
structure (smiles),measurement,setting,value
Cc1ccc(-c2sc3cc(F)c(F)cc3c2-c2c(O)c(C)nn(C)c2=O)cc1 [5-003],"N: redroot pigweed, herbicidal effect grade",redroot pigweed [1]; [26],3 (Herbicidal rate of 40% or more and less than 70%)
same,"Herbicidal effect by foliage application, K: Italian ryegrass",Italian ryegrass [2]; [27],2 (Herbicidal rate of 20% or more and less than 40%)
same,"Herbicidal effect by foliage application, N: redroot pigweed",redroot pigweed [3]; [27],5 (Herbicidal rate of 90% or more (almost completely withered))
same,"I: wild oat, herbicidal effect grade",wild oat [4]; [26],0 (Herbicidal rate of 5% or less (almost no effect))
same,"M: velvetleaf, herbicidal effect grade",velvetleaf [5]; [26],2 (Herbicidal rate of 20% or more and less than 40%)
same,"Herbicidal effect by foliage application, J: blackgrass",blackgrass [6]; [27],0 (Herbicidal rate of 5% or less (almost no effect))
same,"J: blackgrass, herbicidal effect grade",blackgrass [7]; [26],0 (Herbicidal rate of 5% or less (almost no effect))
same,"Herbicidal effect by foliage application, I: wild oat",wild oat [8]; [27],0 (Herbicidal rate of 5% or less (almost no effect))
same,"Herbicidal effect by foliage application, M: velvetleaf",velvetleaf [9]; [27],5 (Herbicidal rate of 90% or more (almost completely withered))
same,"O: lambsquarters, herbicidal effect grade",lambsquarters [10]; [26],5 (Herbicidal rate of 90% or more (almost completely withered))
same,"K: Italian ryegrass, herbicidal effect grade",Italian ryegrass [11]; [26],0 (Herbicidal rate of 5% or less (almost no effect))
same,"H: barnyard grass, herbicidal effect grade",barnyard grass [12]; [26],3 (Herbicidal rate of 40% or more and less than 70%)
same,"Herbicidal effect by foliage application, O: lambsquarters",lambsquarters [13]; [27],5 (Herbicidal rate of 90% or more (almost completely withered))
same,"L: windgrass, herbicidal effect grade",windgrass [14]; [26],0 (Herbicidal rate of 5% or less (almost no effect))
same,herbicidal effect on rice flat sedge (E),rice flat sedge; 320 g/ha,5 (Herbicidal rate of 90% or more (almost completely withered))
same,"Herbicidal effect by foliage application, F: southern crabgrass",southern crabgrass [15]; [27],0 (Herbicidal rate of 5% or less (almost no effect))
same,"F: southern crabgrass, herbicidal effect grade",southern crabgrass [16]; [26],1 (Herbicidal rate of 5% or more and less than 20%)
same,"P: chickweed, herbicidal effect grade",chickweed [17]; [26],4 (Herbicidal rate of 70% or more and less than 90%)
same,"G: green foxtail, herbicidal effect grade",green foxtail [18]; [26],4 (Herbicidal rate of 70% or more and less than 90%)
same,herbicidal effect on Chinese sprangletop (D),Chinese sprangletop; 320 g/ha,3 (Herbicidal rate of 40% or more and less than 70%)
same,"Herbicidal effect by foliage application, G: green foxtail",green foxtail [19]; [27],2 (Herbicidal rate of 20% or more and less than 40%)
same,"Herbicidal effect by foliage application, R: persian speedwell",persian speedwell [20]; [27],5 (Herbicidal rate of 90% or more (almost completely withered))
same,herbicidal effect on barnyard grass (H),barnyard grass [21]; 320 g/ha,3 (Herbicidal rate of 40% or more and less than 70%)
same,"R: persian speedwell, herbicidal effect grade",persian speedwell [22]; [26],4 (Herbicidal rate of 70% or more and less than 90%)
same,"Herbicidal effect by foliage application, H: barnyard grass",barnyard grass [23]; [27],0 (Herbicidal rate of 5% or less (almost no effect))
same,"Herbicidal effect by foliage application, P: chickweed",chickweed [24]; [27],5 (Herbicidal rate of 90% or more (almost completely withered))
same,"Herbicidal effect by foliage application, L: windgrass",windgrass [25]; [27],0 (Herbicidal rate of 5% or less (almost no effect))
Cc1nn(C)c(=O)c(-c2c(-c3cccc(C#N)c3)sc3ccccc23)c1O [1-123],"N: redroot pigweed, herbicidal effect rating",redroot pigweed [1]; AAH 296 g/ha,4 (Herbicidal rate of 70% or more and less than 90%)
same,"K: Italian ryegrass, herbicidal effect",Italian ryegrass [2]; [28],0 (Herbicidal rate of 5% or less (almost no effect))
same,"N: redroot pigweed, herbicidal effect",redroot pigweed [3]; [28],5 (Herbicidal rate of 90% or more (almost completely withered))
same,"I: wild oat, herbicidal effect rating",wild oat [4]; AAH 296 g/ha,0 (Herbicidal rate of 5% or less (almost no effect))
same,"M: velvetleaf, herbicidal effect rating",velvetleaf [5]; AAH 296 g/ha,0 (Herbicidal rate of 5% or less (almost no effect))
same,"J: blackgrass, herbicidal effect",blackgrass [6]; [28],0 (Herbicidal rate of 5% or less (almost no effect))
same,"J: blackgrass, herbicidal effect rating",blackgrass [7]; AAH 296 g/ha,0 (Herbicidal rate of 5% or less (almost no effect))
same,"I: wild oat, herbicidal effect",wild oat [8]; [28],0 (Herbicidal rate of 5% or less (almost no effect))
same,"M: velvetleaf, herbicidal effect",velvetleaf [9]; [28],5 (Herbicidal rate of 90% or more (almost completely withered))
same,"O: lambsquarters, herbicidal effect rating",lambsquarters [10]; AAH 296 g/ha,4 (Herbicidal rate of 70% or more and less than 90%)
same,"K: Italian ryegrass, herbicidal effect rating",Italian ryegrass [11]; AAH 296 g/ha,0 (Herbicidal rate of 5% or less (almost no effect))
same,"H: barnyard grass, herbicidal effect rating",barnyard grass [12]; AAH 296 g/ha,0 (Herbicidal rate of 5% or less (almost no effect))
same,"O: lambsquarters, herbicidal effect",lambsquarters [13]; [28],3 (Herbicidal rate of 40% or more and less than 70%)
same,"L: windgrass, herbicidal effect rating",windgrass [14]; AAH 296 g/ha,0 (Herbicidal rate of 5% or less (almost no effect))
same,"herbicidal effect on E (rice flat sedge), rating 0-5",rice flat sedge; 296 g/ha,3 (Herbicidal rate of 40% or more and less than 70%)
same,"F: southern crabgrass, herbicidal effect",southern crabgrass [15]; [28],0 (Herbicidal rate of 5% or less (almost no effect))
same,"F: southern crabgrass, herbicidal effect rating",southern crabgrass [16]; AAH 296 g/ha,0 (Herbicidal rate of 5% or less (almost no effect))
same,"P: chickweed, herbicidal effect rating",chickweed [17]; AAH 296 g/ha,1 (Herbicidal rate of 5% or more and less than 20%)
same,"G: green foxtail, herbicidal effect rating",green foxtail [18]; AAH 296 g/ha,0 (Herbicidal rate of 5% or less (almost no effect))
same,"herbicidal effect on D (Chinese sprangletop), rating 0-5",Chinese sprangletop; 296 g/ha,3 (Herbicidal rate of 40% or more and less than 70%)
same,"G: green foxtail, herbicidal effect",green foxtail [19]; [28],0 (Herbicidal rate of 5% or less (almost no effect))
same,"R: persian speedwell, herbicidal effect",persian speedwell [20]; [28],1 (Herbicidal rate of 5% or more and less than 20%)
same,"herbicidal effect on H (barnyard grass), rating 0-5",barnyard grass [21]; 296 g/ha,3 (Herbicidal rate of 40% or more and less than 70%)
same,"R: persian speedwell, herbicidal effect rating",persian speedwell [22]; AAH 296 g/ha,3 (Herbicidal rate of 40% or more and less than 70%)
same,"H: barnyard grass, herbicidal effect",barnyard grass [23]; [28],0 (Herbicidal rate of 5% or less (almost no effect))
same,"P: chickweed, herbicidal effect",chickweed [24]; [28],5 (Herbicidal rate of 90% or more (almost completely withered))
same,"L: windgrass, herbicidal effect",windgrass [25]; [28],0 (Herbicidal rate of 5% or less (almost no effect))
